Measurements taken from article PMC3827738 (Biochimica et biophysica acta, 2010).

Target: cytochrome bo3 (cbo3), ubiquinol oxidase (Escherichia coli, UniProt P0ABI8)
Type: biochemical

cytochrome bo3 (cbo3), ubiquinol oxidase, sequence (P0ABI8 whole entry): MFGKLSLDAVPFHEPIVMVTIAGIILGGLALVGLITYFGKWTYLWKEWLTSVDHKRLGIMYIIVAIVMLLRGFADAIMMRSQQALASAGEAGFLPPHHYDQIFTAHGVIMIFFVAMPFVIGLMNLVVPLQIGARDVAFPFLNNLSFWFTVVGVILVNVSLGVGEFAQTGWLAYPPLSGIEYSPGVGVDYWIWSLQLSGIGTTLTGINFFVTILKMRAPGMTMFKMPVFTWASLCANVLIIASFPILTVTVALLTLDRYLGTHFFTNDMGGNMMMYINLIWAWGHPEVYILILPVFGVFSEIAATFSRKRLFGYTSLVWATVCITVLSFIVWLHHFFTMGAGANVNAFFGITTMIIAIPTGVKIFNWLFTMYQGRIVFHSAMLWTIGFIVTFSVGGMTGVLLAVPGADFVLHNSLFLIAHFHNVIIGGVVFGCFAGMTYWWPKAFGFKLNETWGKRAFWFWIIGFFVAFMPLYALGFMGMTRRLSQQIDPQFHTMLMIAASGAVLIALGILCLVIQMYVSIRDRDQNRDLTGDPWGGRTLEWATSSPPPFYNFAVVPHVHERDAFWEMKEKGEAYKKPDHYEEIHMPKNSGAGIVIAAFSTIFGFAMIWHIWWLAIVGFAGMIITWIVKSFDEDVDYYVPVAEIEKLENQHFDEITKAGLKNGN
cytochrome bo3 (cbo3), ubiquinol oxidase, sequence (P0ABJ1 25-315 partner): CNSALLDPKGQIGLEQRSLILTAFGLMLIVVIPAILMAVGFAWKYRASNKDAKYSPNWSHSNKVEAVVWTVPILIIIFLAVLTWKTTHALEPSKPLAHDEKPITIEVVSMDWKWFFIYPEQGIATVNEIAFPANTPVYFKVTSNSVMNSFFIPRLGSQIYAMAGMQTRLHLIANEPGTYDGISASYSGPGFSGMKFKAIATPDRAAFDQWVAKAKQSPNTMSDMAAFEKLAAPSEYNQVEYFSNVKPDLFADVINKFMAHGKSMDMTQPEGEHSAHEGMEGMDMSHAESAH
cytochrome bo3 (cbo3), ubiquinol oxidase, sequence (P0ABJ3 whole entry partner): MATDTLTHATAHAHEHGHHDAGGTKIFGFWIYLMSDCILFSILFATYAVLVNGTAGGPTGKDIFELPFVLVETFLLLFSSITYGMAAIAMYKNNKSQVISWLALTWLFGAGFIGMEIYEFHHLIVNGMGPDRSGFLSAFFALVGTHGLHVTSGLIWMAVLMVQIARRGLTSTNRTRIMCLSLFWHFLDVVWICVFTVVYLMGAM
cytochrome bo3 (cbo3), ubiquinol oxidase, sequence (P0ABJ6 whole entry partner): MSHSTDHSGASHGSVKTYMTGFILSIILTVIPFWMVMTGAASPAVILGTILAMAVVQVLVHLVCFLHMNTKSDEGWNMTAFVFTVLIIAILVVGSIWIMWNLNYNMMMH

## CCCCCCCc1cc(O)c2ccccc2[n+]1[O-] [2-n-Heptyl-4-hydroxyquinoline N-oxide]
  IC50: 28.7 ± 2.1 µM
